Measurements from patent US10550142B2, “Quercetin-based compound” (AMOREPACIFIC CORPORATION, priority 2016, dated 2020).

System: skin
Assay: Cumulative skin irritation test, HRIPT (human repeated insult patch test)
Assay type: in vivo
Design: key to skin reactivity (ICDRG criteria): −: Negative (no reaction); ±: Suspicious or slight erythema, etc.; +: Weak reaction (not accompanied by vesicles), erythema, papules; ++: Severe reaction (accompanied by vesicles), erythema, papules, vesicles; +++: Strong reaction, bullae
Conditions: for Number of subjects showing ±, + or ++ reactivity 1st: 1st patch; for Number of subjects showing ±, + or ++ reactivity 2nd: 2nd patch; for Number of subjects showing ±, + or ++ reactivity 3rd: 3rd patch; for Number of subjects showing ±, + or ++ reactivity 4th: 4th patch; for Number of subjects showing ±, + or ++ reactivity 5th: 5th patch; for Number of subjects showing ±, + or ++ reactivity 6th: 6th patch; for Number of subjects showing ±, + or ++ reactivity 7th: 7th patch; for Number of subjects showing ±, + or ++ reactivity 8th: 8th patch; for Number of subjects showing ±, + or ++ reactivity 9th: 9th patch; for Average reactivity: less than 3 = safe
Procedure: HRIPT (human repeated insult patch test) was performed to evaluate the cumulative skin irritation of quercetin 3-O-[3-O″-(E)-p-coumaroyl][β-D-glucopyranosyl-(1→3)-O-α-L-rhamnopyranosyl-(1→6)-O-β-D-glucopyranoside] and quercetin 3-O-[3-O″-(E)-p-coumaroyl][α-L-rhamnopyranosyl-(1→6)-O-β-D-glucopyranoside] and determine the range of concentration applicable to the skin. Specifically, 15 healthy adult subjects were randomly selected, and 20 μl of a test composition (composition for the skin including an emulsifier, a stabilizer, purified water, etc. in addition to each of the above compounds) containing 0.5% by weight, 1% by weight or 3% by weight of each of the compounds was dropped into each chamber (IQ chamber, Epitest Ltd, Finland) The patch was applied to the upper right side of the back of the subject, and after 24 hours from the application, it was replaced with a new patch. In this way, a total of 9 patches were applied, 3 times a week for 3 weeks. The skin reaction was checked before and after application of each patch. The skin reaction was checked until after 48 hours from the removal of the final patch, and the average reactivity was calculated. The skin reaction was evaluated according to the criteria of the International Contact Dermatitis Research Group (ICDRG). In the above table, “novel substance 31” denotes quercetin 3-O-[3-O″-(E)-p-coumaroyl][β-D-glucopyranosyl-(1→3)-O-α-L-rhamnopyranosyl-(1→6)-O-β-D-glucopyranoside], and “novel substance 32” denotes quercetin 3-O-[3-O″-(E)-p-coumaroyl][α-L-rhamnopyranosyl-(1→6)-O-β-D-glucopyranoside.

[1] = 0.5% by weight, line 1 of 3 (±)
[2] = 0.5% by weight, line 2 of 3 (+)
[3] = 0.5% by weight, line 3 of 3 (++)

CC1OC(OCC2OC(Oc3c(-c4ccc(O)c(O)c4)oc4cc(O)cc(O)c4c3=O)C(O)C(OC(=O)/C=C/c3ccc(O)cc3)C2O)C(O)C(OC2OC(CO)C(O)C(O)C2O)C1O [Novel substance 31, quercetin 3-O-[3-O″-(E)-p-coumaroyl][β-D-glucopyranosyl-(1→3)-O-α-L-rhamnopyranosyl-(1→6)-O-β-D-glucopyranoside]]
Number of subjects showing ±, + or ++ reactivity 1st [1]: 0 number of persons
Number of subjects showing ±, + or ++ reactivity 1st [2]: 0 number of persons
Number of subjects showing ±, + or ++ reactivity 1st [3]: 0 number of persons
Number of subjects showing ±, + or ++ reactivity 2nd [1]: 0 number of persons
Number of subjects showing ±, + or ++ reactivity 2nd [2]: 0 number of persons
Number of subjects showing ±, + or ++ reactivity 2nd [3]: 0 number of persons
Number of subjects showing ±, + or ++ reactivity 3rd [1]: 0 number of persons
Number of subjects showing ±, + or ++ reactivity 3rd [2]: 0 number of persons
Number of subjects showing ±, + or ++ reactivity 3rd [3]: 0 number of persons
Number of subjects showing ±, + or ++ reactivity 4th [1]: 0 number of persons
Number of subjects showing ±, + or ++ reactivity 4th [2]: 0 number of persons
Number of subjects showing ±, + or ++ reactivity 4th [3]: 0 number of persons
Number of subjects showing ±, + or ++ reactivity 5th [1]: 0 number of persons
Number of subjects showing ±, + or ++ reactivity 5th [2]: 0 number of persons
Number of subjects showing ±, + or ++ reactivity 5th [3]: 0 number of persons
Number of subjects showing ±, + or ++ reactivity 6th [1]: 0 number of persons
Number of subjects showing ±, + or ++ reactivity 6th [2]: 0 number of persons
Number of subjects showing ±, + or ++ reactivity 6th [3]: 0 number of persons
Number of subjects showing ±, + or ++ reactivity 7th [1]: 0 number of persons
Number of subjects showing ±, + or ++ reactivity 7th [2]: 0 number of persons
Number of subjects showing ±, + or ++ reactivity 7th [3]: 0 number of persons
Number of subjects showing ±, + or ++ reactivity 8th [1]: 0 number of persons
Number of subjects showing ±, + or ++ reactivity 8th [2]: 0 number of persons
Number of subjects showing ±, + or ++ reactivity 8th [3]: 0 number of persons
Number of subjects showing ±, + or ++ reactivity 9th [1]: 0 number of persons
Number of subjects showing ±, + or ++ reactivity 9th [2]: 0 number of persons
Number of subjects showing ±, + or ++ reactivity 9th [3]: 0 number of persons
Average reactivity (0.5% by weight): 0
Number of subjects showing ±, + or ++ reactivity 1st (1% by weight, line 1 of 3 (±)): 0 number of persons
Number of subjects showing ±, + or ++ reactivity 1st (1% by weight, line 2 of 3 (+)): 0 number of persons
Number of subjects showing ±, + or ++ reactivity 1st (1% by weight, line 3 of 3 (++)): 0 number of persons
Number of subjects showing ±, + or ++ reactivity 2nd (1% by weight, line 1 of 3 (±)): 0 number of persons
Number of subjects showing ±, + or ++ reactivity 2nd (1% by weight, line 2 of 3 (+)): 0 number of persons
Number of subjects showing ±, + or ++ reactivity 2nd (1% by weight, line 3 of 3 (++)): 0 number of persons
Number of subjects showing ±, + or ++ reactivity 3rd (1% by weight, line 1 of 3 (±)): 0 number of persons
Number of subjects showing ±, + or ++ reactivity 3rd (1% by weight, line 2 of 3 (+)): 0 number of persons
Number of subjects showing ±, + or ++ reactivity 3rd (1% by weight, line 3 of 3 (++)): 0 number of persons
Number of subjects showing ±, + or ++ reactivity 4th (1% by weight, line 1 of 3 (±)): 0 number of persons
Number of subjects showing ±, + or ++ reactivity 4th (1% by weight, line 2 of 3 (+)): 0 number of persons
Number of subjects showing ±, + or ++ reactivity 4th (1% by weight, line 3 of 3 (++)): 0 number of persons
Number of subjects showing ±, + or ++ reactivity 5th (1% by weight, line 1 of 3 (±)): 0 number of persons
Number of subjects showing ±, + or ++ reactivity 5th (1% by weight, line 2 of 3 (+)): 0 number of persons
Number of subjects showing ±, + or ++ reactivity 5th (1% by weight, line 3 of 3 (++)): 0 number of persons
Number of subjects showing ±, + or ++ reactivity 6th (1% by weight, line 1 of 3 (±)): 0 number of persons
Number of subjects showing ±, + or ++ reactivity 6th (1% by weight, line 2 of 3 (+)): 0 number of persons
Number of subjects showing ±, + or ++ reactivity 6th (1% by weight, line 3 of 3 (++)): 0 number of persons
Number of subjects showing ±, + or ++ reactivity 7th (1% by weight, line 1 of 3 (±)): 0 number of persons
Number of subjects showing ±, + or ++ reactivity 7th (1% by weight, line 2 of 3 (+)): 0 number of persons
Number of subjects showing ±, + or ++ reactivity 7th (1% by weight, line 3 of 3 (++)): 0 number of persons
Number of subjects showing ±, + or ++ reactivity 8th (1% by weight, line 1 of 3 (±)): 0 number of persons
Number of subjects showing ±, + or ++ reactivity 8th (1% by weight, line 2 of 3 (+)): 0 number of persons
Number of subjects showing ±, + or ++ reactivity 8th (1% by weight, line 3 of 3 (++)): 0 number of persons
Number of subjects showing ±, + or ++ reactivity 9th (1% by weight, line 1 of 3 (±)): 0 number of persons
Number of subjects showing ±, + or ++ reactivity 9th (1% by weight, line 2 of 3 (+)): 0 number of persons
Number of subjects showing ±, + or ++ reactivity 9th (1% by weight, line 3 of 3 (++)): 0 number of persons
Average reactivity (1% by weight): 0
Number of subjects showing ±, + or ++ reactivity 1st (3% by weight, line 1 of 3 (±)): 0 number of persons
Number of subjects showing ±, + or ++ reactivity 1st (3% by weight, line 2 of 3 (+)): 0 number of persons
Number of subjects showing ±, + or ++ reactivity 1st (3% by weight, line 3 of 3 (++)): 0 number of persons
Number of subjects showing ±, + or ++ reactivity 2nd (3% by weight, line 1 of 3 (±)): 0 number of persons
Number of subjects showing ±, + or ++ reactivity 2nd (3% by weight, line 2 of 3 (+)): 0 number of persons
Number of subjects showing ±, + or ++ reactivity 2nd (3% by weight, line 3 of 3 (++)): 0 number of persons
Number of subjects showing ±, + or ++ reactivity 3rd (3% by weight, line 1 of 3 (±)): 0 number of persons
Number of subjects showing ±, + or ++ reactivity 3rd (3% by weight, line 2 of 3 (+)): 0 number of persons
Number of subjects showing ±, + or ++ reactivity 3rd (3% by weight, line 3 of 3 (++)): 0 number of persons
Number of subjects showing ±, + or ++ reactivity 4th (3% by weight, line 1 of 3 (±)): 0 number of persons
Number of subjects showing ±, + or ++ reactivity 4th (3% by weight, line 2 of 3 (+)): 0 number of persons
Number of subjects showing ±, + or ++ reactivity 4th (3% by weight, line 3 of 3 (++)): 0 number of persons
Number of subjects showing ±, + or ++ reactivity 5th (3% by weight, line 1 of 3 (±)): 0 number of persons
Number of subjects showing ±, + or ++ reactivity 5th (3% by weight, line 2 of 3 (+)): 0 number of persons
Number of subjects showing ±, + or ++ reactivity 5th (3% by weight, line 3 of 3 (++)): 0 number of persons
Number of subjects showing ±, + or ++ reactivity 6th (3% by weight, line 1 of 3 (±)): 0 number of persons
Number of subjects showing ±, + or ++ reactivity 6th (3% by weight, line 2 of 3 (+)): 0 number of persons
Number of subjects showing ±, + or ++ reactivity 6th (3% by weight, line 3 of 3 (++)): 0 number of persons
Number of subjects showing ±, + or ++ reactivity 7th (3% by weight, line 1 of 3 (±)): 0 number of persons
Number of subjects showing ±, + or ++ reactivity 7th (3% by weight, line 2 of 3 (+)): 0 number of persons
Number of subjects showing ±, + or ++ reactivity 7th (3% by weight, line 3 of 3 (++)): 0 number of persons
Number of subjects showing ±, + or ++ reactivity 8th (3% by weight, line 1 of 3 (±)): 0 number of persons
Number of subjects showing ±, + or ++ reactivity 8th (3% by weight, line 2 of 3 (+)): 0 number of persons
Number of subjects showing ±, + or ++ reactivity 8th (3% by weight, line 3 of 3 (++)): 0 number of persons
Number of subjects showing ±, + or ++ reactivity 9th (3% by weight, line 1 of 3 (±)): 0 number of persons
Number of subjects showing ±, + or ++ reactivity 9th (3% by weight, line 2 of 3 (+)): 0 number of persons
Number of subjects showing ±, + or ++ reactivity 9th (3% by weight, line 3 of 3 (++)): 0 number of persons
Average reactivity (3% by weight): 0
skin reactivity (ICDRG criteria) (within the content range 0.5, 1, 3% by weight, 9 patches, 15 subjects): −
